# What was measured:
# male Sprague-Dawley rats [1] = assay: Effect of dopamine receptor antagonist sulpiride on erectile effects in rats; type: in vivo; details: rat
# From the text: (§1) In both examples, male Sprague-Dawley rats, about 200 to 225 g, were acclimated for 5 days in a reverse light:dark cycle room (dark 10 a.m. to 10 p.m.) before being aseptically ICV cannulated. Rats with indwelling ICV cannulae were housed one per cage. After surgery, 4 days were allowed for recovery and 10 days total were allowed for adaptation to the light cycle. Rats were caged individually after surgery and body weights at the time of treatment averaged 250 g. Otherwise, the procedure is essentially the same as in Example II.
# Treatment was between 9:30 a.m. and noon. Each animal received an initial IP injection of vehicle (3 ml/kg PBS) or sulpiride. Sulpiride (Sigma) was administered IP at 50 mg/kg (6 ml/kg IP). Ten minutes later, the animals received a final IP injection of HP-228 or vehicle or a SC injection of apomorphine. HP-228 was administered IP at 2 mg/kg in 3 ml/kg PBS. Apomorphine (Sigma) was administered SC at 0.1 mg/kg (1 ml/kg sterile water).
# male Sprague-Dawley rats [2] = assay: Effect of oxytocin receptor antagonist vasotocin on erectile effects in rats; type: in vivo; details: rat
# From the text: as §1
# Treatment was between 10 a.m. and 1 p.m. […] Vasotocin (Peninsula Laboratories, San Carlos Calif.) was administered ICV at 100 ng/rat. Oxytocin (Sigma, St. Louis Mo.) was administered ICV at 30 ng/rat (10 μl/rat PBS). Ten minutes later, IP injections of HP-228 or vehicle were given. HP-228 was administered IP at 2 mg/kg in 3 ml/kg PBS. One group of animals received ICV injections of vasotocin and oxytocin ICV injections of 5 μl/rat each at double concentrations for a total of 10 μl injected ICV. In this group, the rats received vasotocin first, followed by oxytocin.
# Adult male rats = assay: Induction of penile erections in rats after intraperitoneal injection, 60 minute observation; type: in vivo; details: IP injection of compound alone, 60 min observation, n=6
# Experimental: Adult male rats were housed 2 to 3 per cage and were acclimated to the standard vivarium light cycle (12 hr. light, 12 hr. dark), rat chow and water for a least a week prior to testing. All experiments were performed between 9 a.m. and noon and rats were placed in cylindrical, clear plexiglass chambers during the 60 minute observation period. Mirrors were positioned below the chambers to improve viewing.
# Observations began 5 minutes after an intraperitoneal injection of either saline or compound. Two observers counted the number of grooming motions, stretches, yawns and spontaneously occurring penile erections not elicited by genital grooming, and then recorded them as they occurred for a total of 60 minutes. Each observer recorded behaviors of 6 rats at the same time. The observers were unaware of the treatment and animals were tested once, with n=6 in each group. HP-228 was used as a positive control for penile erections.
# By comparison, IP injection with agonist TRG 2411 #203 alone (shown below) increased the average number of erections observed to 2.7.
# Rats = assay: HP-228-mediated erectile response with MC-3 antagonist TRG 6601 #15—2 ICV in rats; type: in vivo; details: rat, PBS ICV, HP-228 2 mg/kg/ml IP
# Experimental: Rats were obtained and cannulated essentially as described in Example VII. Rats received a 10 μl injection ICV containing antagonist “TRG 6601 #15—2” or vehicle alone. The compound was administered as a 1 mg/ml solution in 5% EtOH/PBS at a dose of […]. Five minutes later, the rats were injected IP with either PBS (1 ml/kg) or HP-228 (2 mg/kg/ml). The animals were observed as in Example VII. Erections per hour and rate of animals responding are shown: […]
# C57/BL6 mice = assay: Dose-response of HP-228 for inducing erections in mice; type: in vivo; details: mouse, IP
# Experimental: (§2) Adult male Sprague-Dawley rats weighing 220 to 250 g or adult male C57/BL6 mice (Harlan Laboratories; Indianapolis Ind.) were injected intraperitoneally (IP) with 1 ml/kg body weight HP-228 solution or PBS as a negative control. Concentrations of HP-228 were 0.45, 0.9, 1.8, 3.6 and 7.2 mg/ml/kg (n=4 to 6 animals). The animals were allowed 10 minutes to acclimate to the surroundings before observation. The animals were then observed for 60 minutes for penile erections not induced by grooming. Yawning, stretching, grooming behaviors were also recorded.
# This example describes a dose-response correlation for using HP-228 to induce erections in mice (n=3 to 5). Age-matched C57/BL6 mice (Harlan Laboratories; Indianapolis Ind.) weighing 20 to 25 g were injected (100 μl/mouse) intraperitoneally essentially as described above and observed.
# [3] = test system: Adult male Sprague-Dawley rats; assay: Dose-response of HP-228 for inducing erections in rats; type: in vivo; details: rat, IP
# Experimental: This example describes a dose-response correlation for using HP-228 to induce erections in rats.
# as §2
# Sprague-Dawley rats = assay: Association of MC-3 with erectile response: HP-228 IP with MC-3-specific antagonist ICV in rats; type: in vivo; details: rat, HP-228 1.8 mg/kg IP, PBS ICV (no MC-3 antagonist), n=5
# Experimental: Sprague-Dawley rats (n=5) received 1.8 mg/kg HP-228 or PBS via IP injection. The rats also received via ICV injection a dose of PBS or MC-3-specific antagonist at 10 μg/5 μl. […] After administration, the rats were observed as described above. All rats received an ICV injection followed by an IP injection 5 to 10 minutes later.
# In the negative control rats, receiving only PBS, 0.3 erections per hour were observed. In the positive control rats, receiving HP-228 but no MC-3 antagonist, 3.8 erections per hour were observed.
# human subjects = details: pilot phase I clinical studies (Dorr et al. 1996; Wessells et al. 1998); cited from earlier work
# [4] = single agent plus PBS: apomorphine 0.1 mg/kg SC, HP-228 2 mg/kg IP, sulpiride 50 mg/kg IP
# [5] = single agent plus PBS: oxytocin 30 ng/rat ICV, HP-228 2 mg/kg IP, vasotocin 100 ng/rat ICV
Substance,"response rate, % of animals (male Sprague-Dawley rats [1]; apomorphine and HP-228 groups) [%]",erections per hour (male Sprague-Dawley rats [1]; [4]) [erections per hour],rate of animals responding (male Sprague-Dawley rats [1]; [4]),"response rate, % of animals (male Sprague-Dawley rats [2]; oxytocin and HP-228 groups)",erections per hour (male Sprague-Dawley rats [2]; [5]) [erections per hour],responder rate of animals (rats responding out of rats) (male Sprague-Dawley rats [2]; [5]),average erections observed per rat per hour (Adult male rats),erections per hour (Rats) [erections per hour],rate of animals responding (Rats),avg. erections observed/hour (C57/BL6 mice; 25 μg/mouse HP-228) [erections/hour],avg. erections observed/hour (C57/BL6 mice; 50 μg/mouse HP-228) [erections/hour],avg. erections observed/hour (C57/BL6 mice; 100 μg/mouse HP-228) [erections/hour],avg. erections observed/hour (C57/BL6 mice; 250 μg/mouse HP-228) [erections/hour],"avg. erections observed/hour ([3]; 0.45 mg/ml/kg HP-228, 60 min observation) [erections/hour]","avg. erections observed/hour ([3]; 0.9 mg/ml/kg HP-228, 60 min observation) [erections/hour]","avg. erections observed/hour ([3]; 1.8 mg/ml/kg HP-228, 60 min observation) [erections/hour]","avg. erections observed/hour ([3]; 3.6 mg/ml/kg HP-228, 60 min observation) [erections/hour]","avg. erections observed/hour ([3]; 7.2 mg/ml/kg HP-228, 60 min observation) [erections/hour]",erections per hour (Sprague-Dawley rats) [erections per hour],penile erections in human subjects (human subjects)
Ac-Nle-Gln-His-(D)Phe-Arg-(D)Trp-Gly-NH2 [HP-228],100,7.3,5/5,88%-100%,4.9,7/8,4.8 erections per rat per hour,4.7,6/6,3.00,6.67,5.33,3.00,2.80,2.60,3.67,7.00,5.75,3.8,–
MELANOTAN-II,–,–,–,–,–,–,–,–,–,–,–,–,–,–,–,–,–,–,–,cause penile erections

# Reference: US6534503B1, “Melanocortin receptor-3 ligands to treat sexual dysfunction” (Lion Bioscience AG, priority 1998, dated 2003)
